The values below come from US8383638B2, “Aminobenzoquinazolinone M1 receptor positive allosteric modulators” (Merck Sharp & Dohme, priority 2009, dated 2013).

The experiment addresses T1, acetylcholine muscarinic M1 receptor (Homo sapiens, UniProt P11229).
T1 construct: expressed in transfected cells; host or cells: CHOnfat cells (CHO; also called CHOK1/hM1)
T1 sequence (P11229 1-460): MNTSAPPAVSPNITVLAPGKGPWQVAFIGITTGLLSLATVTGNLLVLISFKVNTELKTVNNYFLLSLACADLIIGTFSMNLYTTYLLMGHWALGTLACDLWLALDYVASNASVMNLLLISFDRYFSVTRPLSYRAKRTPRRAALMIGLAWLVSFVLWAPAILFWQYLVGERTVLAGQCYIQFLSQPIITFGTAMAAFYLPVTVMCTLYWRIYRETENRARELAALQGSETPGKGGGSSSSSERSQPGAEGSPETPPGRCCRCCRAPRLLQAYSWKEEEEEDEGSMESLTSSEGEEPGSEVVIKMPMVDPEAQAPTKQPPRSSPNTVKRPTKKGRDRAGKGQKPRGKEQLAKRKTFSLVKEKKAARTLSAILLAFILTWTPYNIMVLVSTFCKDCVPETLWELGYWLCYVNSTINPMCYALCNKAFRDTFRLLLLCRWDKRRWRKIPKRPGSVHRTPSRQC
Briefly: muscarinic FLIPR assay: potentiation of acetylcholine (EC20)-stimulated intracellular Ca2+ in CHOnfat/hM1 cells. Type of experiment: cell-based. The note with it: 4 min preincubation, then EC20 acetylcholine (3 nM final), positive allosteric modulator activity, read-out: IP Value (inflection point). As to the method:
The assay studies the effect of one or several concentrations of test compounds on basal or acetylcholine-stimulated Ca^2+ levels using FLIPR.
Compounds are prepared and subjected to a preincubation period of 4 min. Thereafter, a single EC20 concentration of acetylcholine is added to each well (3 nM final). The intracellular Ca^2+ level of each sample is measured and compared to an acetylcholine control to determine any modulatory activity.
Cells: CHOnfat/hM1, hM2, hM3 or hM4 cells are plated 24 hr before the assay at a density of 18,000 cells/well (100 μL) in a 384 well plate. CHOnfat/hM1 and CHOnfat/hM3 Growth Medium: 90% DMEM (Hi Glucose); 10% HI FBS; 2 mM L-glutamine; 0.1 mM NEAA; Pen-Strep; and 1 mg/ml Geneticin, are added. For M2Gqi5CHOnfat and M4Gqi5CHOnfat cells, an additional 600 ug/ml hygromycin is added.
Equipment: 384 well plate, 120 μL addition plate; 96-well Whatman 2 ml Uniplate Incubator, 37° C., 5% CO2; Skatron EMBLA-384 Plate Washer; Multimek Pipetting System; Genesis Freedom 200 System; Mosquito System; Temo Nanoliter Pipetting System; and FLIPR^384 Fluorometric Imaging Plate Reader System are used.
Buffers. Assay Buffer: Hanks Balanced Salt Solution, with 20 mM Hepes, 2.5 mM Probenecid (Sigma P-8761) first dissolved in 1 N NaOH, 1% Bovine Serum Albumin (Sigma A-9647). Dye Loading Buffer: Assay Buffer plus 1% Fetal Bovine Serum and Fluo-4AM/Pluronic Acid Mixture. 2 mM Fluo-4AM ester stock in DMSO (Molecular Probes F-14202) Concentration of 2 μM in buffer for a final concentration of 1 μM in Assay. 20% Pluronic Acid Solution stock, with concentration of 0.04% in Buffer, 0.02% in Assay.
65 μL of 2 mM Fluo-4AM are mixed with 130 μL of 20% Pluronic Acid. The resulting solution and 650 μL FBS is added to the assay buffer for a total volume of 65 mL. Positive Controls: 4-Br-A23187: 10 mM in DMSO; final concentration 10 μM. Acetylcholine: 10 mM in water, working stock at both 20 μM and 30 μM in assay buffer, final concentration of 10 μM. This is used to check the maximum stimulation of the CHOK1/hM1 cells. 20 μM (2×) acetylcholine is added in the preincubation part of the assay, and the 30 μM (3×) stock is added in the second part. (EC20)Acetylcholine: 10 mM in water, working stock of 9 nM (3×), and final concentration in assay is 3 nM. This is used after the preincubation with test compounds. Addition of the EC20 Acetylcholine to each well with a test compound will ascertain any modulator activity. 24 wells contain 3 nM Acetylcholine alone as a control.
Screening Plate Compounds are titrated in 96-well plates (columns 2-11), 100% DMSO, started at a concentration of 15 mM (150× stock concentration), and 3-fold serial dilutions using Genesis Freedom200 System. Four 96-well plates are combined into a 384-well plate using Mosquito Nanoliter Pipetting System by transferring 1 μl of serial diluted compounds to each well, and 1 mM acetylcholine (100× stock concentration) were added as a control. Using Temo, 49 μl assay buffer is added to each well of the 384-well plate right before assay.
In a 96-well Whatman 2 ml Uniplate, 9 nM Acetylcholine (3×) is pipetted into wells corresponding to the screening compounds, and into control wells. The 30 μM acetylcholine control (3×) is added into control wells, and the 3× agonist plate is transferred into a 384 well plate.
Cells are washed three times with 100 μL of buffer, leaving 30 μL of buffer in each well. Using Multimek, 30 μL of Dye Loading Buffer is added into each well and incubated at 37° C., 5% CO2 for up to one hr.
After 60 min, the cells are washed three times with 100 μL of buffer, leaving 30 μL […] of buffer in each well. The cell plate, screening plate, and agonist addition plates are placed on the platform in the FLIPR and the door closed. A signal test to check background fluorescence and basal fluorescence signal is performed. Laser intensity is adjusted if necessary. […]
As for `O=c1c2cc(CN3CCN(c4ccsc4)CC3)c3ccccc3c2ncn1[C@H]1CCCC[C@@H]1O` [Example 6, 3-[(1S,2S)-2-Hydroxycyclohexyl]-6-{[4-(3-thienyl)piperazin-1-yl]methyl}benzo[h]quinazolin-4(3H)-one], the EC50 amounted to 387 nM.

For `O=c1c2cc(CN3CCC(F)(c4ccccn4)CC3)c3ccccc3c2ncn1[C@H]1CCCC[C@@H]1O` [Example 9, 6-[(4-Fluoro-4-pyridin-2-ylpiperidin-1-yl)methyl]-3-[(1S,2S)-2-hydroxycyclohexyl]benzo[h]quinazolin-4(3H)-one], the EC50 was 105 nM.

Consider `N#CC1(c2ccccn2)CCN(Cc2cc3c(=O)n([C@H]4CCCC[C@@H]4O)cnc3c3ccccc23)CC1` (racemic) [Example 1, rac-1-({3-[(1R,2R)-2-Hydroxycyclohexyl]-4-oxo-3,4-dihydrobenzo[h]quinazolin-6-yl}methyl)-4-pyridin-2-ylpiperidine-4-carbonitrile], for which the EC50 turned out to be 45 nM.

As to `N#CC1(c2ccccn2)CCN(Cc2cc3c(=O)n([C@H]4CCOC[C@@H]4O)cnc3c3ccccc23)CC1` [Example 3], the EC50 came out at 31 nM.

Turning to `N#CC1(c2ccccn2)CCN(Cc2cc3c(=O)n([C@H]4CCCC[C@@H]4O)cnc3c3ccccc23)CC1` [Example 2, 1-({3-[(1S,2S)-2-Hydroxycyclohexyl]-4-oxo-3,4-dihydrobenzo[h]quinazolin-6-yl}methyl)-4-pyridin-2-ylpiperidine-4-carbonitrile], the EC50 was 18 nM.

For the compound `CC1(C#N)CCN(Cc2cc3c(=O)n([C@H]4CCCC[C@@H]4O)cnc3c3ccccc23)CC1` [Example 8, 1-({3-[(1S,2S)-2-Hydroxycyclohexyl]-4-oxo-3,4-dihydrobenzo[h]quinazolin-6-yl}methyl)-4-methylpiperidine-4-carbonitrile], the EC50 stood at 339 nM.

Consider `Cn1cc(N2CCN(Cc3cc4c(=O)n([C@H]5CCCC[C@@H]5O)cnc4c4ccccc34)CC2=O)cn1` (racemic) [Example 7, rac-3[(1R,2R)-2-Hydroxycyclohexyl]-6-{[4-(1-methyl-1H-pyrazol-4-yl)-3-oxopiperazin-1-yl]methyl}benzo[h]quinazolin-4(3H)-one], for which the EC50 came to 44 nM.

For the compound `Cc1ccnc(C2(C#N)CCN(Cc3cc4c(=O)n([C@H]5CCCC[C@@H]5O)cnc4c4ccncc34)CC2)c1` [Example 5, 1-({3-[(1S,2S)-2-Hydroxycyclohexyl]-4-oxo-3,4-dihydropyrido[3,4-h]quinazolin-6-yl}methyl)-4-(4-methylpyridin-2-yl)piperidine-4-carbonitrile], the EC50 came to 21 nM.

As for `N#CC1(c2ccccn2)CC[N+]([O-])(Cc2cc3c(=O)n([C@H]4CCCC[C@@H]4O)cnc3c3ccccc23)CC1` (stereo partly drawn) [Example 4, 1-({3-[(1S,2S)-2-Hydroxycyclohexyl]-4-oxo-3,4-dihydrobenzo[h]quinazolin-6-yl}methyl)-4-pyridin-2-ylpiperidine-4-carbonitrile 1-oxide], the EC50 is 3880 nM.
